Results: patent publication US12551498B2, “Treatment of P53-deficient cancers” (Health Research, Inc., priority 2019, dated 2026)
Where “and” joins values, the source holds several entries; their conditions need not be identical. Equal entries are not always repeated. Entries after “also recorded” stand apart in the source; their conditions may differ. Where two headings read alike, the source gives them in different places.

Columns and labels:
[1] = system: γH2AX in p53mt MDA-MB-231 cells; test: DNA damage marker γH2AX, p53mt cancer cells; assay type: cell-based, human; conditions: p53mt / p53-deficient cells
Description: (§1) Cells were grown on glass coverslips (22×22 mm) and treated with inhibitors for various times, then fixed with 4% PFA and permeabilized with 0.05% Triton X-100. For γH2AX staining samples were blocked with 3% milk in PBS for 30 min at room temperature (RT), and then incubated for 1 h with antibodies to γH2AX (1:400) in 1% milk/PBS followed by incubation with Texas red-conjugated secondary antibody (1:500) for 30 min at RT. For evaluation of genomic EdU, cells were grown on glass coverslips, and then pulse-labeled with EdUrd as described for flow cytometry. Cells were fixed at various times with 4% PFA and permeabilized with 0.05% Triton X-100, and then EdU was labeled with Cy3 azide using ‘click-it’ reaction as described above. DNA was labeled with Hoechst 33342 before mounting on glass slides. Fluorescence images were taken with a Plan Apochromat 60×/1.40 NA oil objective at ambient temperature using Nikon TE2000-E inverted microscope equipped with a charge-coupled device camera (CoolSNAP HQ; Photometrics). The images were acquired using MetaVue imaging software (v7.7.3, Molecular Devices). Experiments were repeated twice with representative images shown.
Immunoblotting: Tumor cells were seeded in a 6-well plate at 300,000 cells/well and treated with various reagents. […] Protein concentrations in lysates were quantitated and 15 μg of protein/lane were resolved on a 10% SDS-PAGE gel. […]

[2] = system: MDA-MB-231 cells; test: EdU-removal assay / genomic EdU, MDA-MB-231; assay type: cell-based, human
Description: (§2) All samples were analyzed on an LSRFortessa Cytometer (BD Biosciences) running FACSDiva (Version 6.1.3), and the data were processed using FCS Express 7 (Version 7.04.0016). For the EdUrd pulse experiments, 300,000 cells per well were seeded in a 6-well plate, and the following day media was replaced with base media containing 5% dialyzed FBS. Cells were then incubated with 10 μM EdUrd for two hours, while untreated cells served as the negative control. Following the two-hour pulse, cells were washed twice with DPBS and the media was replenished. Collection of cells began at t=0 hr up to t=72 hr post EdUrd-pulse. Cells were collected using standard trypsinization, washed in 1% BSA in DPBS, and fixed in 4% paraformaldehyde for 15 minutes. Cells underwent two more washes in 1% BSA/DPBS before being permeabilized in 1× saponin buffer. […] Samples were sorted using a BD LSRFortessa cytometer running FACSDiva (Version 6.1.3), and the data were analyzed using ModFit Lt software (Version 5.0.9). […]
(§3) Cells were grown on glass coverslips (22×22 mm) and treated with inhibitors for various times, then fixed with 4% PFA and permeabilized with 0.05% Triton X-100. […] Fluorescence images were taken with a Plan Apochromat 60×/1.40 NA oil objective at ambient temperature using Nikon TE2000-E inverted microscope equipped with a charge-coupled device camera (CoolSNAP HQ; Photometrics). […]

[3] = system: γH2AX in MCF10A cells; test: DNA damage marker γH2AX, p53wt MCF10A; assay type: cell-based, human
Description: as §1
(§4) Immunoblotting: Tumor cells were seeded in a 6-well plate at 300,000 cells/well and treated with various reagents. Whole-cell lysates were prepared using NP40 lysis buffer containing PMSF, Na-Orthovanadate, and protease inhibitor cocktail. Snap-frozen tumor tissues were ground and suspended in NP40 lysis buffer. Protein concentrations in lysates were quantitated and 15 μg of protein/lane were resolved on a 10% SDS-PAGE gel. Proteins were transferred onto a nitrocellulose membrane in 10% Methanol-SDS buffer and probed with appropriate antibodies. ECL reagent was used to visualize immune-complexes on radiographic films.

[4] = molecular target: thymidylate synthase (TS) (Homo sapiens, UniProt P04818); conditions: cited from earlier work
Chain of thymidylate synthase (TS) (P04818 whole entry, species assumed): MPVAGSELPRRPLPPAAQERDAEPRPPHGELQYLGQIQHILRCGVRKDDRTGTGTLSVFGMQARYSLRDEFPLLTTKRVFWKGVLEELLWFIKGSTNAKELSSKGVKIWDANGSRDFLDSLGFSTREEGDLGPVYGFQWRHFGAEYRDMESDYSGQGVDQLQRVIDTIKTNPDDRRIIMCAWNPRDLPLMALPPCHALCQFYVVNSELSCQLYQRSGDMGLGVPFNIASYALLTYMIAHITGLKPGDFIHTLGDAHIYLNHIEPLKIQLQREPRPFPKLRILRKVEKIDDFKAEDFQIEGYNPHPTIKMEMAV

[5] = system: p53-p21 signaling in MCF10A cells; test: p53-p21 signaling immunoblot, MCF10A; assay type: cell-based, human; conditions: for p53-p21 signaling response: MCF10A (p53wt)
Description: as §4

[6] = system: p53-p21 signaling in MDA-MB-231 cells; test: p53-p21 signaling immunoblot, MDA-MB-231; assay type: cell-based, human; conditions: MDA-MB-231 (p53mt)
Description: as §4

[7] = system: BRCA1-deficient cell lines; conditions: cited from earlier work
[8] = system: MCF10A cells; test: Cytotoxicity assay (methylene blue), MCF10A; assay type: cell-based, human; conditions: MCF10A (p53wt), single agent; read-out: IC50, cytotoxicity, drug alone
Description: (§5) Cells were plated at a density of 5,000 cells/well in a 96 well-plate and then treated with the appropriate drugs at varying concentrations for 24 hours. Media was replenished with media with or without PARP inhibitors and cell were incubated for 96 hours. Cells were stained with 1% Methylene Blue for 30 minutes, rinsed with water, dried and then solubilized in 5% SDS in PBS, and read at 650 nm. IC50 values were generated using GraphPad Prism8 (Version 8.4.2).
(§6) Cytotoxicity Assay: Cells were plated at a density of 5,000 cells/well in a 96 well-plate and then treated with the appropriate drugs at varying concentrations for 24 hours. Media was replenished with media with or without PARP inhibitors and cell were incubated for 96 hours. Cells were stained with 1% Methylene Blue for 30 minutes, rinsed with water, dried and then solubilized in 5% SDS in PBS, and read at 650 nm. IC50 values were generated using GraphPad Prism8 (Version 8.4.2).

[9] = Cytotoxicity assay (methylene blue), MCF10A; assay type: cell-based, human; conditions: human, MCF10A cells (p53wt), single agent, read-out: IC50, cytotoxicity, drug alone
Description: as §5, §6

[10] = system: MDA-MB-231 tumors; assay type: in vivo; conditions: 5 days-on, 2 days-off
Description: (§7) Tumor growth was monitored by measuring tumor diameters with electronic calipers twice/week. Volumes were calculated using the formula (length)×(width)2/2. Mouse weights were measured twice/week. […] Drugs were given at 50 mg/kg by oral gavage on schedule 5-days-on and 2-days-off. At the endpoint, mice were euthanized and subjected to necropsy and organ collection. Tumor tissues were collected for RNA and protein analyses by snap-freezing in liquid nitrogen. Blood was collected for CBC by cardiac puncture.
Statistical significance of data comparisons were determined using the Student's unpaired t-test with a two-tailed distribution. Statistical significance was achieved when P<0.05. […]

[11] = system: MDA-MB-231 cells; test: Cell cycle analysis by flow cytometry, p53mt cancer cells; assay type: cell-based, human
Description: as §2
(§8) Flow cytometry: All samples were analyzed on an LSRFortessa Cytometer (BD Biosciences) running FACSDiva (Version 6.1.3), and the data were processed using FCS Express 7 (Version 7.04.0016). […] Samples were sorted using a BD LSRFortessa cytometer running FACSDiva (Version 6.1.3), and the data were analyzed using ModFit Lt software (Version 5.0.9). […]

[12] = system: MIAPACA-2 tumors; test: MIAPACA-2 subcutaneous pancreatic cancer xenograft in mice; assay type: in vivo; conditions: 50 mg/kg each drug, oral gavage, 5 days-on, 2 days-off
Description: as §7, with “calipers” for “calipers twice/week. Volumes were calculated using the formula (length)×(width)2/2. Mouse weights were measured”
Statistical significance was achieved when P<0.05.

[13] = system: MCF10A cells; test: EdU-removal assay, MCF10A; assay type: cell-based, human; conditions: 0.5 μM Olaparib after 2 hr EdU pulse
Description: as §2, §3

[14] = system: PARylation activity in MCF10A and MDA-MB-231 cells; test: Inhibition of PARylation activity in cell culture (immunoblot); assay type: cell-based, human; conditions: 24 hrs
Description: as §4

[15] = system: MDA-MB-231 cells; test: Cytotoxicity assay (methylene blue), MDA-MB-231; assay type: cell-based, human; conditions: single agent, read-out: IC50, cytotoxicity, drug alone
Description: as §5, §6

[16] = system: p53-deficient cancer cell lines; test: Cytotoxicity assay, p53-deficient (p53mt) cancer cell lines; assay type: cell-based, human
Description: as §5, §6

[17] = system: MCF10A cells; test: Cell cycle analysis by flow cytometry, MCF10A; assay type: cell-based, human; conditions: MCF10A (p53wt)
Description: as §2, §8

[18] = Homo sapiens, MDA-MB-231, MDA-MB-231 (p53mt)

SMILES: C#Cc1cn([C@H]2C[C@H](O)[C@@H](CO)O2)c(=O)[nH]c1=O [EdUrd, 5-ethynyl-2′-deoxy-uridine]
- γH2AX (DNA damage) response [1]: continued accumulation of DNA damage signal
- Increase of EdU+ fraction after EdUrd-pulse ([2]; 24 hrs after 2 hr EdUrd pulse, flow cytometry): ~25%
- γH2AX (DNA damage) response [3]: transient increase of γH2AX levels

SMILES: O=c1[nH]c(=O)n([C@H]2C[C@H](O)[C@@H](CO)O2)cc1C(F)(F)F [TFT, 5-trifluoro-2′-deoxythymidine]
- Inhibition of TS [4]: 0.38 nM

SMILES: O=C(c1cc(Cc2n[nH]c(=O)c3ccccc23)ccc1F)N1CCN(C(=O)C2CC2)CC1 [olaparib]
- Concentration activating p53-p21 signaling ([5]; MCF10A): 200 nM
- p53-p21 signaling response [5]: induced p53-p21 signaling
- Concentration inducing p53-p21 signaling ([5]; MCF10A, 24 hrs): 0.2 to 0.5 µM
- p53-p21 signaling response [6]: p21 was not regulated; also recorded: no response was observed
- IC50 [7]: < 1000 nM
- IC50 [8]: 15.3 µM
- IC50 at 24 h [9]: 14.5 µM
- Median survival (time-to-arrive at 300 mm3 tumor size) ([10]; 50 mg/kg each drug, oral gavage): 21 days
- Tumor growth ([10]; 50 mg/kg oral gavage): did not affect tumor growth
- Cell cycle effect [11]: increased G2 fraction at the expense of S phase
- Median survival (time-to-arrive at 500 mm3 tumor size) [12]: 21 days
- Effect on removal of EdU [13]: significantly delayed removal of EdU
- Concentration inhibiting PARylation activity in cells [14]: 100 to 500 nM and 50 to 100 nM
- IC50 [15, 18]: 17.6 µM
- IC50 ([15]; MDA-MB-231 (p53mt)): 17.4 µM
- Effect on removal of EdU ([2]; MDA-MB-231, 0.5 μM Olaparib after 2 hr EdU pulse): had no effect
- IC50 ([16]; Homo sapiens, read-out: IC50 for cancer cells, PARPi alone): 16 to 24 µM
- Cell cycle effect [17]: increased G1-population

SMILES: Cn1ncnc1[C@H]1c2n[nH]c(=O)c3cc(F)cc(c23)N[C@@H]1c1ccc(F)cc1 [talazoparib]
- p53-p21 signaling response [5]: p21 induction was observed only in p53wt cells
- Cell cycle effect [11]: increased G2 fraction at the expense of S phase
- Concentration inhibiting PARylation activity in cells [14]: 50 nM
- IC50 ([16]; Homo sapiens; read-out: IC50 for cancer cells, PARPi alone): 2 to 4 µM

SMILES: O=c1[nH]cc(F)c(=O)[nH]1 [5FU, 5-fluoro-uracil]
- Cooperation of 5FU with olaparib in cytotoxicity ([16]; olaparib 0.5 μM; tested cell lines): did not cooperate with olaparib; also recorded: does not enhance cytotoxicity

SMILES: COc1ccc(C2=N[C@@H](c3ccc(Cl)cc3)[C@@H](c3ccc(Cl)cc3)N2C(=O)N2CCNC(=O)C2)c(OC(C)C)c1 [Nutlin-3A]
- γH2AX (DNA damage) response [3]: did not induce DNA damage γH2AX marker

SMILES: O=c1[nH]c(=O)n([C@H]2C[C@H](O)[C@@H](CO)O2)cc1F [FdUrd, 5-fluoro-2′-deoxyuridine]
- p53-p21 signaling response [5]: induced p53-p21 signaling
- γH2AX (DNA damage) response [1]: induced by 24 hrs and remained at high levels at 48 hrs
- IC50 at 24 h [9]: 1.6 µM
- IC50 [15, 18]: 5.5 µM
- γH2AX (DNA damage) response [3]: induced transiently at 6 hrs of FdU exposure and declined by 48 hrs
